The test concerns the target T1, human S1P1 receptor (Homo sapiens, UniProt P21453).
T1 construct: expressed in transfected cells; membranes used
Put plainly: GTP γ35S binding assay for S1P1 activity. The class given is biochemical. Conditions: activity potency from GTP γ35S binding; membranes, test compounds 0.08 to 5,000 nM, 30 min at 25° C. As to the method:
Compounds were synthesized and tested for S1P1 activity using the GTP γ^35S binding assay. These compounds may be assessed for their ability to activate or block activation of the human S1P1 receptor in cells stably expressing the S1P1 receptor.
GTP γ^35S binding was measured in the medium containing (mM) HEPES 25, pH 7.4, MgCl2 10, NaCl 100, dithitothreitol 0.5, digitonin 0.003%, 0.2 nM GTP γ^35S, and 5 μg membrane protein in a volume of 150 μl. Test compounds were included in the concentration range from 0.08 to 5,000 nM unless indicated otherwise. Membranes were incubated with 100 μM 5′-adenylylimmidodiphosphate for 30 min, and subsequently with 10 μM GDP for 10 min on ice. Drug solutions and membrane were mixed, and then reactions were initiated by adding GTP γ^35S and continued for 30 min at 25° C. Reaction mixtures were filtered over Whatman GF/B filters under vacuum, and washed three times with 3 mL of ice-cold buffer (HEPES 25, pH7.4, MgCl2 10 and NaCl-100). Filters were dried and mixed with scintillant, and counted for ^35S activity using a β-counter. Agonist-induced GTP γ^35S binding was obtained by subtracting that in the absence of agonist. Binding data were analyzed using a non-linear regression method. In case of antagonist assay, the reaction mixture contained 10 nM S1P in the presence of test antagonist at concentrations ranging from 0.08 to 5000 nM.
Background: GTPγS resists hydrolysis and so accumulates on activated G proteins.
T1 sequence (P21453 whole entry): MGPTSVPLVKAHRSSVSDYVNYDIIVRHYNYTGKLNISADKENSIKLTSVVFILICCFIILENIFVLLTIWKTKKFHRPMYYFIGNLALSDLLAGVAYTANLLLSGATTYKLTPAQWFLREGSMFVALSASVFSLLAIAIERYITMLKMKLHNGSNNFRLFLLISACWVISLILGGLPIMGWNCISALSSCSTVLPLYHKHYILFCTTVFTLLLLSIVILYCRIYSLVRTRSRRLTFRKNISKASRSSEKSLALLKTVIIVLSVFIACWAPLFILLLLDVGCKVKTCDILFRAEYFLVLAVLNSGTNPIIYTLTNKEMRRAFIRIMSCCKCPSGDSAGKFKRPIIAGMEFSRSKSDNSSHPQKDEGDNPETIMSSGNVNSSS
For orientation: EC50 means the concentration giving half of the maximal effect. With `O=C(NCc1ccc2c(c1)OCO2)c1cc(-c2ccccc2)c(N2CCOCC2)s1` [N-(1,3-benzodioxol-5-ylmethyl)-5-morpholin-4-yl-4-phenylthiophene-2-carboxamide], the EC50 is 336 nM.
The value for `Cc1ccc(NC(c2cccc(Cl)c2)c2nc(-c3ccc(CN4CC(C(=O)O)C4)cc3)no2)cc1C` (stereo not drawn) [Compound 6, 1-[4-(5-{(3-chlorophenyl)[(3,4-dimethylphenyl)amino]methyl}-1,2,4-oxadiazol-3-yl)benzyl]azetidine-3-carboxylic acid] was 312 nM.
For the compound `Cc1ccc(OC(c2cccc(Cl)c2)c2nc(-c3ccc(CN4CC(C(=O)O)C4)cc3)no2)cc1C` (stereo not drawn) [Compound 2, 1-(4-{5-[(3-chlorophenyl)(3,4-dimethylphenoxy)methyl]-1,2,4-oxadiazol-3-yl}benzyl)azetidine-3-carboxylic acid], a half-maximal response (EC50) required 598 nM.
On to `CCCc1ccc(OC(c2cccc(Cl)c2)c2nc(-c3ccc(CN4CC(C(=O)O)C4)cc3)no2)cc1` (stereo not drawn) [Compound 3, 1-(4-{5-[(3-chlorophenyl)(4-propylphenoxy)methyl]-1,2,4-oxadiazol-3-yl}benzyl)azetidine-3-carboxylic acid], for which the EC50 is 1100 nM.
The value for `CCc1ccc(OC(c2cccc(Cl)c2)c2nc(-c3ccc(CN4CC(C(=O)O)C4)cc3)no2)cc1` (stereo not drawn) [Compound 1, 1-(4-{5-[(3-chlorophenyl)(4-ethylphenoxy)methyl]-1,2,4-oxadiazol-3-yl}benzyl)azetidine-3-carboxylic acid] was 1060 nM.
The compound `Cc1ccc(OC(c2nc(-c3ccc(CN4CC(C(=O)O)C4)cc3)no2)c2ccccc2Cl)cc1C` (stereo not drawn) [Compound 4, 1-(4-{5-[(2-chlorophenyl)(3,4-dimethylphenoxy)methyl]-1,2,4-oxadiazol-3-yl}benzyl)azetidine-3-carboxylic acid] had an EC50 of 911 nM.

Values taken from patent publication US8906899B2, “Azetidine derivatives as sphingosine 1-phosphate (S1P) receptor modulators” (Allergan, Inc., priority 2010, dated 2014).
